In article PMC9233675, “Ru(II) photocages enable precise control over enzyme activity with red light” (Nature Communications, 2022):
Changes are numbered by the printed parent chain.

Key:
CYP1B1 Q332E = molecular target: T1, CYP1B1 Q332E (Homo sapiens, UniProt Q16678, Q332E); assay: In cell CYP1B1 activity assay, Q332E variant; details: for logSI Q332E: log of the ratio of IC50 values mutant vs WT (Fig. 3c)
T1 sequence (Q16678 1-543 Q332E): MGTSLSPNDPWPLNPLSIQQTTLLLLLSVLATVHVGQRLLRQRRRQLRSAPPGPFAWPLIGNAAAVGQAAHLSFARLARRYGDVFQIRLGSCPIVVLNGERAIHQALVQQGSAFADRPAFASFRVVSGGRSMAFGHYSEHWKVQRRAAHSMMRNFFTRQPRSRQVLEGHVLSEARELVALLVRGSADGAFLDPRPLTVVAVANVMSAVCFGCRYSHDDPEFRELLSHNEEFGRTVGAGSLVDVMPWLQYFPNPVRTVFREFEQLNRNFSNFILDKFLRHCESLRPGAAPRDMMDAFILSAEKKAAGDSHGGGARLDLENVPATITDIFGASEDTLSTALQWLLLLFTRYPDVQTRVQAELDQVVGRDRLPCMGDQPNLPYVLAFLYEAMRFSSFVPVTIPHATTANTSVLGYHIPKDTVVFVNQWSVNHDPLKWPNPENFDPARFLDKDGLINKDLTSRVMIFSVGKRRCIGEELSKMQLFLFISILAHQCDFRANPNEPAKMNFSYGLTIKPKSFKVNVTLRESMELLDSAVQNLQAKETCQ
From the text: (§1) Site directed mutagenesis was used to probe the importance of specific active-site contacts identified through the structural assessment (Fig. 3a, b) and simulations. In all cases, conservative mutations were made to maintain polar or hydrophobic character and approximate size. The aromatic residues that frame the inhibitor binding site, Phe143 and Phe231, were mutated to Leu to determine the importance of the π interactions. In addition, the Ser127 residue, located in the upper corner of the active site on the B-C loop, was chosen for mutation based on the simulations. This amino acid transiently contacts the inhibitors, but also forms a hydrogen bond with Asp326 of the I-helix, and thus may impact the position of this helix with regards to the B-C loop. […] Rather than directly mutating these residues in the I-helix, neighboring residues Gln332 and Asp333 were targeted, with the hope of interrupting amino acid interactions that position the helix within the active site.
(§2) The ratio of IC50 values for the WT vs. the mutant are shown in Fig. 3c and reflects the importance of the specific contact; the log of the value is used to aid in visualization.
(§3) Cell lines were seeded onto Geltrex coated 96-well plates at 40,000 cells/well, and grown overnight in DMEM media containing 1 μg/mL tetracycline. The media was then replaced with Opti-MEM supplemented with 2% FBS and 1 μg/mL tetracycline. Compounds were serially diluted in Opti-MEM supplemented with 2% FBS and 1 μg/mL tetracycline and an equal volume of compound added to the cells (n = 3). Following a 1 h incubation, resorufin ethyl ether (REE; for CYP1B1 and 1A1) or dibenzylfluorescein (DBF; for 19A1) was added to the cells for a total concentration of 5 μM for REE and 1 μM for DBF. […] Dose–response curves were generated in Prism and normalized using the no-compound control (set as 100% activity) and the no-cell control (set as 0% activity; this value in the raw data reflects the background fluorescence of the dye alone).

[1] = Stability of compounds in human liver microsomes; details: for Remaining, % (NCF=60min): human liver microsomes, no co-factor (no NADPH); for CLint scaled / Remaining, % (T=60min) / half-life / microsomal CLint: human, liver microsomes
[2] = tested on: cytochrome P450 enzymes in pooled human liver microsomes; assay: Inhibition of cytochrome P450 enzymes in pooled human liver microsomes (phLM); format: biochemical; details: human, pooled human liver microsomes, pH 7.8, probe 7-benzoyloxy-4-trifluoromethylcoumarin, 50 µM; Dark; conversion of 7-benzoyloxy-4-trifluoromethylcoumarin
Method in brief: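 Pooled microsomes from 50 donors (16 µg/well) were used with 50 µM 7-benzoyloxy-4-trifluoromethylcoumarin in 100 mM potassium phosphate pH 7.8 and preincubated with compound for 5 min at 25 °C, then kept dark or red-light irradiated for 1 h (660 nm, 58.7 J/cm^2). Reactions were started with 1.2 mM NADPH, and fluorescence (ex 435/em 525 nm) was read every 3 min for 120 min at 37 °C. Linear rates were plotted against log concentration.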

CYP1B1 S127A = molecular target: T2, CYP1B1 S127A (Homo sapiens, UniProt Q16678, S127A); assay: In cell CYP1B1 activity assay, S127A variant; details: for logSI S127A: log of the ratio of IC50 values mutant vs WT (Fig. 3c)
T2 sequence (Q16678 1-543 S127A): T1 sequence (Q16678 1-543 Q332E) with S127A, E332Q
From the text: as §1, §2, §3

[3] = Stability of compounds in rat liver microsomes; details: for Remaining, % (NCF=60min): rat liver microsomes, no co-factor (no NADPH); for CLint scaled / Remaining, % (T=60min) / half-life / microsomal CLint: rat, liver microsomes
CYP1B1 S269A = molecular target: T3, CYP1B1 S269A (Homo sapiens, UniProt Q16678, S269A); assay: In cell CYP1B1 activity assay, S269A variant; details: for logSI S269A: log of the ratio of IC50 values mutant vs WT (Fig. 3c)
T3 sequence (Q16678 1-543 S269A): T1 sequence (Q16678 1-543 Q332E) with S269A, E332Q
From the text: as §1, §2, §3

Row | Compound | IC50 (CYP1B1 Q332E) | Ratio IC50 (mutant)/ IC50 (WT), Q332E (CYP1B1 Q332E) | logSI Q332E (CYP1B1 Q332E) | Remaining, % (NCF=60min) [1] | CLint scaled [1] | Remaining, % (T=60min) [1] | half-life [1] | microsomal CLint [1] | IC50 [2] | IC50 (CYP1B1 S127A) | Ratio IC50 (mutant)/ IC50 (WT), S127A (CYP1B1 S127A) | logSI S127A (CYP1B1 S127A) | Remaining, % (NCF=60min) [3] | CLint scaled [3] | Remaining, % (T=60min) [3] | half-life [3] | microsomal CLint [3] | IC50 (CYP1B1 S269A) | Ratio IC50 (mutant)/ IC50 (WT), S269A (CYP1B1 S269A) | logSI S269A (CYP1B1 S269A)
1 | COc1ccc(/C=C/c2ccncn2)c(OC)c1 [Compound 2] | 402 nM | 5.3 | 0.7 | 96.5% | 181 mL/min/kg | 0.4% | 6.9 min | 201 µL/min/mg | 1180 nM | 3740 nM | 50 | 1.7 | 47.1% | 369 mL/min/kg | 0.3% | 6.75 min | 205 µL/min/mg | 73 nM | 1 | 0
2 | COc1cc(/C=C/c2ccc(OC)cc2OC)cc(OC)c1 [Compound 1, reference compound] | – | – | 0.6 | 77.1% | – | – | – | – | 11000 nM | – | – | -1.5 | 63.7% | – | – | – | – | – | – | 0.3
3 | COc1ccc(C=Cc2ccncc2)c(OC)c1 [Compound 3] | – | – | 2.2 | 92.1% | 155 mL/min/kg | 0.6% | 8.07 min | 172 µL/min/mg | 334 nM | – | – | 2.2 | 108.6% | 241 mL/min/kg | 1.4% | 10.4 min | 134 µL/min/mg | – | – | 0.8
